Measured values reported in publication PMC7170498, “Targeted alpha therapy using astatine (^211At)-labeled phenylalanine: A preclinical study in glioma bearing mice” (Oncotarget, 2020).

Assays:
GL261 cells = assay: In vitro cellular uptake and inhibition assay of ^211At-PA; type: cell-based, murine; settings: Mus musculus, 20 mM BCH added 5 min before para-^211At-PA, compared to baseline, read-out: inhibition of ^211At-PA uptake by addition of BCH
Protocol: (§1) The C6 rat glioma cell line was provided by RIKEN BRC (Tsukuba, Japan) and cultured in F-12K medium (Gibco, Grand Island, NY, USA) containing 10% fetal bovine serum (FBS; Sigma-Aldrich). The U-87 MG human glioblastoma cell line was purchased from American Type Culture Collection (Manassas, VA, USA) and cultured in Modified Eagle’s medium (MEM; Sigma-Aldrich, St. Louis, MO, USA) containing 1% Non Essential Amino Acids (NEAA) + 1 mM Sodium Pyruvate (NaP) and 10% FBS. The GL261 murine glioma cell line was provided by the In Vivo Cellular and Molecular Imaging Lab at Vrije Universiteit, Brussels and cultured in high-glucose Dulbecco’s MEM (DMEM; Wako Pure Chemical, Osaka, Japan) containing 10% FBS. All cells were maintained at 37°C in a humidified incubator containing 5% CO2 and were washed with phosphate-buffered saline (PBS) and harvested with trypsin as necessary. LAT1 expression of these cells were confirmed in previous studies.
(§2) Initially, the cells were seeded onto a 24-well plate (density: 1 × 10^5/well) and cultured for 2 days. […] Counts per minute (CPM) of the samples were measured by gamma counter. The protein concentrations were measured using the BCA protein assay kit (FUJIFILM Wako Pure Chemical) and a plate reader (Multiskan FC, ThermoFisher Scientific, USA). […]

U-87MG cells = assay: as above; type: cell-based; settings: Homo sapiens, 20 mM BCH added 5 min before para-^211At-PA, compared to baseline, read-out: inhibition of ^211At-PA uptake by addition of BCH
Protocol: as §1, §2

C6 glioma cells = assay: as above; type: cell-based; settings: Rattus norvegicus, 20 mM BCH added 5 min before para-^211At-PA, compared to baseline, read-out: inhibition of ^211At-PA uptake by addition of BCH
Protocol: as §1, §2

thyroid gland = settings: ^211At-astatide deastatinated from ^211At-PA; cited from earlier work
[1] = Biodistribution and iodine blocking effect in normal ICR mice; type: in vivo, mouse; settings: for residence time in major organs (meta- versus para-): intravenous
Protocol: For the biodistribution study, para- or meta-^211At-PA (0.53 ± 0.04 MBq) was injected into normal male ICR mice (n = 18, 9 weeks old, body weight = 37.7 ± 1.3 g). The mice were sacrificed by euthanasia at 1, 3, and 24 hr post-injection. For the iodine blocking study, normal male ICR mice (n = 6, 9 weeks old, body weight = 37.9 ± 0.9 g) were fed with 2-week iodine-restricted diet. […] The mice were euthanized 3 hr post-administration of para-^211At-PA (0.5 MBq) and dissected.
The major organs (brain, thyroid gland, salivary gland, heart, lung, esophagus, liver, stomach, small intestine, large intestine, kidney, adrenal gland, pancreas, spleen, and testes) and the blood were collected from each mouse, and the radioactivity and weight of each sample were measured using an AccuFlex γ7000 device (Hitachi, Aloka, Japan). Radioactivity counts were normalized by calibration with a standard solution of ^211At. The residence time (hr) was calculated using the trapezoidal method without decay correction.

[2] = Stability of the radiolabeled products in vials; type: physicochemical; settings: for 24 hr
Protocol: Ascorbic acid, para-borono-L-phenylalanine (para-BPA), meta-borono-D, L-phenylalanine (meta-BPA), N-bromosuccinimide (NBS), and an injectable solution of 7% sodium hydrogen carbonate (7% NaHCO3) were purchased from Nacalai Tesque (Kyoto, Japan). For the experiments, 1 mg of para-BPA (or meta-BPA) was dissolved in 0.1 mL of 7% NaHCO3. Next, 0.1 mL of the 1% (w/v) para-BPA (or meta-BPA) solution and an aliquot of ^211At aqueous solution (10–20 MBq) were poured into a glass vial, stirred, and mixed with 30 μL of an aqueous solution of 0.4% (w/v) NBS for 30 min at room temperature. Finally, 30 μL of an aqueous solution of 3% (w/v) ascorbic acid was added to the mixture to stop the oxidation reaction, and the mixture was purified using solid-phase extraction. The purified para-^211At-PA or meta-^211At-PA was then analyzed using a high-performance liquid chromatography system (Shimazdu, Kyoto) equipped with a reverse-phase Cosmosil column (5C18 MS2, 150 mm × 4.6 mm; Nacalai Tesque). The products were eluted using a gradient solvent system (0–100% acetonitrile in water) for 20 min and then measured using a gamma-ray detector (GABI star, Elysia-raytest, Germany) and a UV detector at 254 nm.

C6 glioma xenograft [3] = assay: Treatment effect in C6 glioma xenograft mice; type: in vivo, mouse; settings: for tumor size ratio (relative to the control): 3 weeks post-injection
Protocol: (§3) All animal experiments were performed in compliance with the guidelines of the Institute of Experimental Animal Sciences. The protocol was approved by the Animal Care and Use Committee of the Osaka University Graduate School of Medicine. Normal ICR, normal C57BL/6, and nude mice (male) were purchased from Japan SLC Inc. (Hamamatsu, Japan). All animals were housed under a 12-h light/12-hr dark cycle, and given free access to food and water. C6 glioma cells (5.0 × 10^6 cells) or GL-261 cells (1.0 × 10^7 cells) were suspended in 100 μL of culture medium and Matrigel (1:1 ratio; BD Biosciences, Franklin Lakes, NJ, USA). Tumor xenograft and allograft models were prepared via the subcutaneous injection of this C6 glioma cell suspension into each immunodeficient nude mouse (n = 12) and the GL-261 cell suspension into each immunocompetent C57BL/6 mouse (n = 12), respectively.
Para-^211At-PA was injected into mice bearing C6 glioma xenografts (n = 9; 15 weeks old; body weight = 23.8 ± 1.2 g) and GL261 allografts (n = 7; 8 weeks old; body weight = 23.6 ± 1.2 g) at 23 and 20–21 days after implantation, respectively. C6 glioma xenograft mice were divided into four groups according to the injected dose: 1 MBq (n = 3, 1.19 ± 0.05 MBq), 0.5 MBq (n = 3, 0.55 ± 0.02 MBq), 0.1 MBq (n = 3, 0.09 ± 0.03 MBq), and control mice without para-^211At-PA administration (n = 3). GL261 allograft mice were divided into two groups: 1 MBq (n = 7, 1.07 ± 0.07 MBq) and control (n = 5). Planar imaging was performed using a gamma camera system (E-cam, Siemens) at 30 min and 3 hr after para-^211At-PA administration. This system targeted the X-rays emitted from the daughter nuclide, ^211Po (energy window: 79 keV ± 20%) (6). Image analysis was performed using AMIDE software (ver. 1.0.4). The tumor uptake was calculated as the percent injected dose (%ID). The absorbed dose (Gy) in the tumor was estimated according to a previous report with the normalization to the tumor volume in the calculation process. The tumor sizes (mm^3) were monitored using a caliper, calculated using the following elliptical sphere model equation, and compared between the injected and control groups of mice.
V = 4/3*π*a^2*b (V: volume of the tumor (mm^3), a: shorter radius (mm) and b: longer radius (mm))

[4] = system: intracranial glioblastomas; parameters: method as in PMID 24036694; settings: intravenous treatment; rats with intracranial glioblastomas; cited from earlier work
C6 glioma xenograft [5] = assay: Planar imaging and tumor dosimetry in C6 glioma-bearing mice; type: in vivo, mouse
Protocol: as §3
(§4) Para-^211At-PA was injected into mice bearing C6 glioma xenografts (n = 9; 15 weeks old; body weight = 23.8 ± 1.2 g) and GL261 allografts (n = 7; 8 weeks old; body weight = 23.6 ± 1.2 g) at 23 and 20–21 days after implantation, respectively. […] The tumor uptake was calculated as the percent injected dose (%ID). […] The tumor sizes (mm^3) were monitored using a caliper, calculated using the following elliptical sphere model equation, and compared between the injected and control groups of mice.

GL261 allograft = assay: Treatment effect in GL261 allograft mice; type: in vivo, mouse
Protocol: as §3
as §4, with “mice. […]” for “mice.”

[6] = molecular target: T1, L-type amino acid transporter-1 (LAT1) (Homo sapiens, UniProt Q01650); assay: Transport of para-^211At-PA into Xenopus oocytes expressing LAT1 (compared with LAT2); type: cell-based; settings: Xenopus oocytes co-expressing 4F2hc; choline buffer; 5, 15, 45 min
T1 construct: expressed in transfected cells; host or cells: defolliculated Xenopus oocytes injected with polyadenylated cRNA (25 ng/oocyte)
T1 sequence (Q01650 whole entry): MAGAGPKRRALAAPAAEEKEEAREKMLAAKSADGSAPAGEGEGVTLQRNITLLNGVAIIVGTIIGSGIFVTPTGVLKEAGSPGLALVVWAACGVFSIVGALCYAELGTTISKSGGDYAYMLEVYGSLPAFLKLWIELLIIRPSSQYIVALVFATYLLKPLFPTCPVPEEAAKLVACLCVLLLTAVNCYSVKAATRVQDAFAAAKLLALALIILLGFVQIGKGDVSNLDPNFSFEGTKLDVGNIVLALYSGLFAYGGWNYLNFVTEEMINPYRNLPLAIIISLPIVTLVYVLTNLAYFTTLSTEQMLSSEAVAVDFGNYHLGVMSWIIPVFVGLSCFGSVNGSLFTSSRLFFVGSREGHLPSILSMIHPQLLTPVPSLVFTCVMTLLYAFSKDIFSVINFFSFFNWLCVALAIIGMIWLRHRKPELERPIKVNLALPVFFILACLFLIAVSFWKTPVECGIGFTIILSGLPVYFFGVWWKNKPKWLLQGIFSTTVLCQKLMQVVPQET
T1 sequence (P08195 102-630 partner): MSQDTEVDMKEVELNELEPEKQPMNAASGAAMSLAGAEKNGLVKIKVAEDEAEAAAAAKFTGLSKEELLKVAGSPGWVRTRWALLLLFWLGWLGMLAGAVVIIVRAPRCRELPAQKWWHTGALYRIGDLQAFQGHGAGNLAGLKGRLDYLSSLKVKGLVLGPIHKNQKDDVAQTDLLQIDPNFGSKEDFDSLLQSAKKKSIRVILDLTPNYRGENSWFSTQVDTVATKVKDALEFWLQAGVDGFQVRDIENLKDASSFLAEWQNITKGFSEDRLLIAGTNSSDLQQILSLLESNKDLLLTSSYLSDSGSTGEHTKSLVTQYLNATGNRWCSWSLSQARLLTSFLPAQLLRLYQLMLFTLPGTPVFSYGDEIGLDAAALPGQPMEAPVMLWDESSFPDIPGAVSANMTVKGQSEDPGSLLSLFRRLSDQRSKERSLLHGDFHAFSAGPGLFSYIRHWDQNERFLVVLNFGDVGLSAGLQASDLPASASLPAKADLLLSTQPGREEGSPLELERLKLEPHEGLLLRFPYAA
Protocol: Supplementary Figure 1 lists the cDNAs of human transporters used in this study. First, cRNAs were synthesized in vitro from linearized plasmids using the mMessage mMachine Kit, polyadenylated with a Poly (A) Tailing Kit, and purified with a MEGAclear Kit (all kits: ThermoFisher Scientific, Waltham, MA, USA) according to the manufacturer’s protocols. Next, defolliculated Xenopus oocytes were injected with polyadenylated cRNA (25 ng/oocyte) to induce expression. An equimolar amount of 4F2hc cRNA was co-injected to ensure the functional expression of LAT1 and LAT2 [24–26].
Amino acid transport was measured in the oocytes 2–4 days after cRNA injection, as previously described. Briefly, the oocytes were incubated at room temperature with 500 μL of uptake buffer (choline uptake solution: 100 mM (CH3)3N (Cl) CH2CH2OH, 2 mM KCl, 1.8 mM CaCl2.2H2O, 1 mM MgCl2, 5 mM HEPES, pH 7.5) containing ^211At-PA (approximately 10kBq/oocyte). Radioactivity was determined using a gamma counter. Nine to 11 oocytes were used for each transport measurement. Two separate experiments were performed using different batches of oocytes to confirm the reproducibility of the results.

glioblastoma = system: glioblastoma; parameters: method as in PMID 19269895; settings: patients with glioblastoma after temozolomide therapy; cited from earlier work
[7] = NaI 10 mg/kg i.v. 24 and 3 hr before, 3 hr post-administration

NC1(C(=O)O)CC2CCC1C2 (stereo not drawn) [BCH, 2-aminobicyclo-(2,2,1)-heptane-2-carboxylic acid] showed an inhibition at 20000 µM (GL261 cells) of 12.6 ± 2%, an inhibition at 20000 µM (U-87MG cells) of 27.6 ± 1.1% and an inhibition at 20000 µM (C6 glioma cells) of 12.2 ± 0.8%.

For [211AtH] [^211At-astatide], the “reduction of thyroid uptake following pre-administration of iodine” value (thyroid gland) is listed as 80%.

In the case of N[C@@H](Cc1cccc([211At])c1)C(=O)O [meta-^211At-PA], the “residence time in major organs (meta- versus para-)” value [1] is reported as “comparable results” and the stability in vials [2] is reported as “remained stable”.

For N[C@@H](Cc1ccc([211At])cc1)C(=O)O [para-^211At-PA, ^211At-para-astato-L-PA], the “accumulation in the heart and spleen with iodine blocking” value [1, 7] was “increased accumulation”, the “decrease in accumulation in the thyroid by iodine blocking” value [1, 7] was 81% and the “residence time in major organs (meta- versus para-)” value [1] was “comparable results”. For the same compound, the “tumor size ratio (relative to the control)” value (C6 glioma xenograft [3]; 0.1 MBq) was 0.60, the “tumor size ratio (relative to the control)” value (C6 glioma xenograft [3]; 0.5 MBq) was 0.40 and the “tumor size ratio (relative to the control)” value (C6 glioma xenograft [3]; 1 MBq) was 0.25. For the same compound, the “changes in body weights versus control mice” value (C6 glioma xenograft [3]; C6 glioma xenograft model) was “No significant differences”, the “health conditions and survival durations” value [4] was “improved the health conditions and enhanced the survival durations” and the “tumor uptake (planar imaging)” value (C6 glioma xenograft [5]; 30 min post-injection) was 3.7 ± 0.8 %ID. For the same compound, the “tumor uptake (planar imaging)” value (C6 glioma xenograft [5]; 3 hr post-injection) was 1.5 ± 0.2 %ID, the stability in vials [2] was “remained stable” and the relative tumor size (GL261 allograft; 1 MBq, day 32) was 0.24. For the same compound, the “changes in body weights versus control mice” value (GL261 allograft; GL261 allograft model) was “No significant differences” and the “transport into oocytes by LAT1 compared with LAT2” value [6] was “Significantly greater transport”.

In the case of Cn1nnc2c(C(N)=O)ncn2c1=O [temozolomide], the “5-year overall survival rate” value (glioblastoma) is given as 9.8%.
